Results reported in patent publication US5814631A, “Quinazoline derivatives and applications thereof” (Suntory Limited, priority 1995, dated 1998).
Read-outs that look alike come from different tables or passages of the source.

How the values were obtained:
[1] = test system: chymase; settings: canine, simian, and human arterial tissue; cited from earlier work
[2] = test system: vascular restenosis after the operation of PTCA; settings: random multifacility clinical study, Europe, placebo control; cited from earlier work
[3] = target: T1, human heart chymase (Homo sapiens, UniProt P23946); settings: read-out: Chymase inhibitive activity (IC50), Ang I substrate, 37° C., 30 min, pH 7.5
T1 sequence (P23946 22-247): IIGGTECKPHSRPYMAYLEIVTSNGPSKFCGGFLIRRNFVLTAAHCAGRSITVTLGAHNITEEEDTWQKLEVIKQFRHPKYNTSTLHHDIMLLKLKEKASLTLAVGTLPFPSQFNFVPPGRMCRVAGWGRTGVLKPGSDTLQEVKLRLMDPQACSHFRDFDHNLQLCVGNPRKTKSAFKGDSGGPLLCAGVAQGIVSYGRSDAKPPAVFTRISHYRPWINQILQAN
Experimental: (§1) That is, to 10 μl of a 20 mM trisphosphate buffer (pH 7.5) containing 2MKCl were added 10 μl of purified chymase and 5 μl of a dimethylsulfoxide (hereinafter referred to as DMSO) solution of the test sample. The mixture was preincubated at 37° C. for 10 minutes, then 25 μl of a 1 mM Ang I solution was added and the mixture preincubated at 37° C. for 30 minutes. Next, 50 μl of 30% acetic acid was added to stop the enzymatic reaction. At the same time, a blind test was performed by adding, instead of the test sample solution, 5 μl of DMSO and performing the same reaction.
(§2) The reacted solution was subjected to high performance liquid chromatography using Develosil ODS-5 (made by Nomura Kagaku, .phi.4.6 mm×150 mm) and developed at a flow rate of 2.0 ml/min in 0.05% TFA by a straight concentration gradient raising the acetonitrile from 0% to 60% over 10 minutes. This was monitored by the absorbance at 210 nm and the peaks identified by comparison with standard samples of Ang I and Ang II. The peak areas were measured by an integrating meter to quantitatively analyze the Ang I and Ang II and calculate the chymase activity.

[4] = target: T1, human heart chymase; test: biochemical; settings: Chymase inhibitive activity (IC50), Ang I substrate, 37° C., 30 min, pH 7.5
Experimental: as §1, §2

[5] = target: T2, human neutrophil derived cathepsin G (Homo sapiens, UniProt P08311); test: Measurement of cathepsin G inhibitive activity (conversion of Ang I to Ang II, HPLC); type: biochemical; settings: Ang I substrate, 37° C., 30 min, pH 7.5
T2 sequence (P08311 21-244 limits assumed): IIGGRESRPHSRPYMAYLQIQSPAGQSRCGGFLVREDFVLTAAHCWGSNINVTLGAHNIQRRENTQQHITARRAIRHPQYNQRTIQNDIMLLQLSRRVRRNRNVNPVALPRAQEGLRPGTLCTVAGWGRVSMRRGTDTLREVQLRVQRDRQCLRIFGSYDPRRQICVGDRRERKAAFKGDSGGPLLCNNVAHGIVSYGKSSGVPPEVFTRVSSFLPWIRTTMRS

[6] = target: T3, bovine pancreatic α-chymotrypsin (Bos taurus, UniProt P00766); test: Measurement of chymotrypsin inhibitive activity (Ang I, HPLC); type: biochemical; settings: for inhibition at 100 µM: percent inhibition at 100 μM; for IC50: bovine pancreatic α-chymotrypsin, Ang I substrate, 37° C., 15 min, pH 7.5
T3 construct: purchased Sigma Co. Type II; host or cells: bovine pancreas

[7] = in vivo; settings: mouse, po

In the case of `CC(C)C[C@H](NC(=O)[C@@H](NC(=O)N[C@@H](Cc1ccccc1)C(=O)O)[C@@H]1CCN=C(N)N1)C(=O)N[C@H](C=O)Cc1ccccc1` [chymostatin], the “inhibition of the enzymatic activity of chymase, in words” value [1] is given as “inhibited”.
In the case of `CCOC(=O)[C@H](CCc1ccccc1)N[C@H]1CCCN2CCC[C@@H](C(=O)O)N2C1=O` [cilazapril], the “prophylactic effect on vascular restenosis after PTCA versus placebo” value [2] is given as “no statistically significant difference”.
In the case of “3(4-chlorobenzenesulfonyl)-1-phenethyl-2,4(1H,3H)-quinazolinedione [Example 129]”, the IC50 [3] is reported as 3.2 µM.
`Nc1ncc(NC(=O)Cn2c(=O)n(S(=O)(=O)c3ccc(Cl)cc3)c(=O)c3ccc(Cl)cc32)cn1` [Example 87, [7-chloro-3-(4-chlorobenzenesulfonyl)-2,4(1H,3H)-quinazolinedion-1-yl]-N-(4-(2-aminopyrimidinyl))acetamide] gave an IC50 [3] of 0.13 µM.
With `O=C(O)Cn1c(=O)n(S(=O)(=O)c2ccc(Cl)cc2)c(=O)c2ccc(Cl)cc21` [Example 29, 1-carboxymethyl-7-chloro-3-(4-chlorobenzenesulfonyl)-2,4(1H,3H)-quinazolinedione] the IC50 [4] was 3.3 µM, the IC50 [5] was 14 µM and the inhibition at 100 µM [6] was 46.5%.
With `O=c1[nH]c2cc(Cl)ccc2c(=O)n1S(=O)(=O)c1ccc(Cl)cc1` [Example 1, 7-chloro-3-(-4-chlorobenzenesulfonyl)-2,4(1H,3H)-quinazolinedione] the LD50 at 24 h [7] was ≥ 1000 mg/kg, the IC50 [5] was 0.52 µM and the IC50 [6] was 1.5 µM.
`O=C(O)c1ccc(S(=O)(=O)n2c(=O)[nH]c3cc(Cl)ccc3c2=O)cc1` showed an IC50 [4] of 3.1 µM, an IC50 [5] of 0.58 µM and an IC50 [6] of 25 µM.
With `O=c1[nH]c2cc(Cl)ccc2c(=O)n1S(=O)(=O)c1ccc([N+](=O)[O-])cc1` [Example 13, 7-chloro-3-(4-nitrobenzenesulfonyl)-2,4(1H,3H)-quinazolinedione] the IC50 [4] was 0.85 µM, the IC50 [5] was 0.034 µM and the IC50 [6] was 0.24 µM.
For `Cc1cccc2[nH]c(=O)n(S(=O)(=O)c3ccc(Cl)cc3)c(=O)c12` [Example 2, 3-(4-chlorobenzenesulfonyl)-5-methyl-2,4(1H,3H)-quinazolinedione], the LD50 at 24 h [7] was ≥ 1000 mg/kg and the selectivity ratio at 24 h [7] was ≥ 50.
Work on `O=C(Cn1c(=O)n(S(=O)(=O)c2ccc(Cl)cc2)c(=O)c2ccc(Cl)cc21)Nc1cc[nH]c(=O)n1` [Example 88, [7-chloro-3-(4-chlorobenzenesulfonyl)-2,4(1H,3H)-quinazolinedion-1-yl]-N-cytosinacetamide] yielded an IC50 [3] of 0.2 µM.
For `O=c1[nH]c2cc(Cl)ccc2c(=O)n1S(=O)(=O)c1ccccc1` [Example 11, 7-chloro-3-benzenesulfonyl-2,4 3(1H,3H)-quinazolinedione], the IC50 [4] was 0.73 µM, the IC50 [5] was 0.25 µM and the IC50 [6] was 3 µM.
Compound `Cc1ccc(S(=O)(=O)n2c(=O)[nH]c3cc(Cl)ccc3c2=O)cc1` [Example 37, 7-chloro-3-(4-toluenesulfonyl)-2,4(1H,3H)-quinazolinedione] has an IC50 [4] of 1.3 µM, an IC50 [5] of 1.2 µM and an IC50 [6] of 6.1 µM.
Work on `Cc1ccc2[nH]c(=O)n(S(=O)(=O)c3ccc(Cl)cc3)c(=O)c2c1` [Example 3] yielded an IC50 [4] of 3.9 µM, an IC50 [5] of 64.4 µM and an IC50 [6] of 3.5 µM.
Work on `Cc1ccc(S(=O)(=O)n2c(=O)[nH]c3cc(Cl)ccc3c2=O)cc1C` [Example 9, 7-chloro-3-(3,4-dimethylbenzenesulfonyl)-2,4(1H,3H)-quinazolinedione] yielded an IC50 [4] of 1.6 µM, an IC50 [5] of 0.48 µM and an IC50 [6] of 2.5 µM.
In the case of `CC(C)(C)OC(=O)Cn1c(=O)n(S(=O)(=O)c2ccc(Cl)cc2)c(=O)c2ccc(Cl)cc21` [Example 25, 1-t-butoxycarbonylmethyl-7-chloro-3-(4-chlorobenzenesulfonyl)-2,4(1H,3H)-quinazolinedione], the IC50 [4] is reported as 6.3 µM, the IC50 [5] is reported as 37 µM and the inhibition at 100 µM [6] is reported as 34.5%.
